Measurements as given in article PMC11094307, “Marine-derived EGFR inhibitors: novel compounds targeting breast cancer growth and drug resistance” (Frontiers in Pharmacology, 2024).

Columns and labels:
MCF-7 cells = test: Cell cycle analysis by flow cytometry (PI); format: cell-based, human; settings: 20 μM, 24 h
Protocol: After 24 h of treatment with various concentrations of compounds, MCF-7 cells were harvested and washed twice with phosphate-buffered saline (PBS). For cell cycle analysis, the cells were initially fixed with 70% ethanol at 4°C overnight and subsequently washed with PBS. The fixed cells were then resuspended in 1× PBS containing 0.5% Triton X-100, 50 μg/mL propidium iodide (PI), and 50 μg/mL DNase-free RNase A, and incubated at 37°C for 30 min in darkness. Following incubation, cell cycle distribution was assessed using a BD FACSCanto™ flow cytometer.

BCL-2 = test: Western blotting of MCF-7 lysates, BCL-2; format: cell-based, human; settings: for BCL-2 WB Normalized: control 0 µM 0.841817367
Protocol: MCF-7 cell lysates were prepared by rinsing the cells twice with PBS and then solubilizing them in lysis buffer (NP40 supplemented with protease and phosphatase inhibitor cocktails) on ice. The solubilization process involved rotating the lysis buffer/cell mixture end over end for 10 min at 4°C. After centrifugation for 10 min at 4°C to remove insoluble material, the protein concentration of the solubilized protein was determined using a BCA assay. Subsequently, samples were diluted in SDS sample buffer. Equivalent amounts of protein were separated by SDS-PAGE, transferred to PVDF membranes, and probed with the indicated antibody. Prior to incubation with primary antibodies overnight at 4°C, the membranes were blocked with 5% skim milk-TBST. The antibodies and their sources were as follows: PARP1 (1:500, Santa Cruz Biotechnology), Cleaved Caspase-3 (1:1000, Cell Signaling Technology), BAX (1:500, Santa Cruz Biotechnology), BCL-2 (1:500, Santa Cruz Biotechnology), and GAPDH (1:500, Santa Cruz Biotechnology). Following incubation with horseradish peroxidase-conjugated goat anti-mouse or goat anti-rabbit secondary antibody (Santa Cruz Biotechnology), the detected proteins were visualized using the Pierce Enhanced Chemiluminescence (ECL) reagent and a UV Products imaging system. Band intensities were quantified using the National Institutes of Health ImageJ software.

COC(=O)C/C(C)=C/C(=O)O[C@@H]1C[C@@H](C)[C@H]2[C@@H](C=C[C@H](CC(C)C)[C@]2(C)C(=O)/C=C\O)[C@@H]1O [Tandyukisin]
percentage of cells in G0/G1 phase (MCF-7 cells): 85.67%
BCL-2 WB Gray Value (BCL-2; 5 µM): 41097.258
BCL-2 WB Normalized (BCL-2; 5 µM): 0.9373
BCL-2 WB Gray Value (BCL-2; 10 µM): 21588.48
BCL-2 WB Normalized (BCL-2; 10 µM): 0.4959
BCL-2 WB Gray Value (BCL-2; 20 µM): 7215.723
BCL-2 WB Normalized (BCL-2; 20 µM): 0.211
